For test [1], the system named is T1, General amino-acid permease GAP1 (Saccharomyces cerevisiae), P19145 [R399C].
T1 sequence (whole entry): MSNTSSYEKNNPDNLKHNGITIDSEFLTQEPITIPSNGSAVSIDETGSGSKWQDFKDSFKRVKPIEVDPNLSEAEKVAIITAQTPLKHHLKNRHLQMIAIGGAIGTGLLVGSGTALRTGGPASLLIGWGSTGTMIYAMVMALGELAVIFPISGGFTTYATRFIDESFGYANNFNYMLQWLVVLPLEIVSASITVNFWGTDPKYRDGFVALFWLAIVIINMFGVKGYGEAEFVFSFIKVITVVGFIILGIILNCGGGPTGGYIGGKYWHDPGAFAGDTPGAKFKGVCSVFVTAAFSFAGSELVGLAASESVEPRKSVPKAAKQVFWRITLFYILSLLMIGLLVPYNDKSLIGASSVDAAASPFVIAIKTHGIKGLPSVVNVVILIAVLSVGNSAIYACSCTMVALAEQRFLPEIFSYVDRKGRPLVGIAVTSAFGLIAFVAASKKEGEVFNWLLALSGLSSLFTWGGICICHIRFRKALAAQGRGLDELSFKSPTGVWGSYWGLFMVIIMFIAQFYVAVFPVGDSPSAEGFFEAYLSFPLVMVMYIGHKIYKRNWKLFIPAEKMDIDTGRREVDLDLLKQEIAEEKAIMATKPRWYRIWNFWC
Nature of the test: Activation of yeast Gap1 R399C mutant-mediated amino acid uptake at 10 mM.

In test [2] the test system is T2, General amino-acid permease GAP1 (Saccharomyces cerevisiae), P19145 [I382C].
T2 sequence (whole entry): T1 sequence (whole entry) with I382C, C399R
Description: Induction of yeast Gap1 I382C mutant-mediated trehalose activation at 10 mM.

Test [3] relates to T3, General amino-acid permease GAP1 (Saccharomyces cerevisiae), P19145 [A405C].
T3 sequence (whole entry): T1 sequence (whole entry) with C399R, A405C
Nature of the test: Induction of yeast Gap1 A405C mutant-mediated trehalose activation at 10 mM.

Test [4] has as its system General amino-acid permease GAP1 (Saccharomyces cerevisiae), P19145 [I394C]. Nature of the test: Inhibition of yeast Gap1 I394C mutant-mediated amino acid uptake at 10 mM.
For test [5], the target named is T4, General amino-acid permease GAP1 (Saccharomyces cerevisiae) (UniProt P19145).
T4 sequence (whole entry): T1 sequence (whole entry) with C399R
Nature of the test: Induction of nitrogen-starved wild type sigma1278b yeast Gap1-mediated amino acid uptake at 2 mM in presence of 10 mM MTSEA treated before compound addition.

The test system of test [6] is General amino-acid permease GAP1 (Saccharomyces cerevisiae), P19145 [S388C]. Description: Induction of yeast Gap1 S388C mutant-mediated trehalose activation at 2 mM in presence of 10 mM MTSEA treated before compound addition.
Chain of General amino-acid permease GAP1 (Saccharomyces cerevisiae), P19145 [S388C] (P19145 whole entry S388C): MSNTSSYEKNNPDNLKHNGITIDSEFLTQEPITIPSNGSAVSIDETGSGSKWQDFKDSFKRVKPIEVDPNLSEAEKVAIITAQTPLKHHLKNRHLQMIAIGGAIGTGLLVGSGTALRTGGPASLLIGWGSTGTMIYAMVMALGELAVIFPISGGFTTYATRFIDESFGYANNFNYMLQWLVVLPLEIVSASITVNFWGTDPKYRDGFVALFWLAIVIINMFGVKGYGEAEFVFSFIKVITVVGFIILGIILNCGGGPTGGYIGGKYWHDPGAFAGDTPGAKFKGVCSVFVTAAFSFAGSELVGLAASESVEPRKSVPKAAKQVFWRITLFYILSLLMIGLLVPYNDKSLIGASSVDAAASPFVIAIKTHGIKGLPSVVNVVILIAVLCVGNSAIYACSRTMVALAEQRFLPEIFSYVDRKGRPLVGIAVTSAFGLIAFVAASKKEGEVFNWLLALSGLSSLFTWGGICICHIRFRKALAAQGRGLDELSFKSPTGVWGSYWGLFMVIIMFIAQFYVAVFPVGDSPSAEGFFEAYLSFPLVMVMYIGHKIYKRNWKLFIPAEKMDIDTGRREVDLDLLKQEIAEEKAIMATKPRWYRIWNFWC
Test [7] deals with T5, General amino-acid permease GAP1 (Saccharomyces cerevisiae), P19145 [C397C].
T5 sequence (whole entry): T1 sequence (whole entry) with C399R
Nature of the test: Induction of yeast Gap1 C397C mutant-mediated amino acid uptake at 2 mM in presence of 10 mM MTSEA treated before compound addition.

Consider one molecule from ChEMBL document CHEMBL1221220, “Transport and signaling via the amino acid binding site of the yeast Gap1 amino acid transceptor” (Nat Chem Biol, 2009).

SMILES strings stand for the structures. Numbering of substitutions follows the chain as printed. Active and inactive are the calls of the source. No cut-off for these calls is given here.

Chain of General amino-acid permease GAP1 (Saccharomyces cerevisiae), P19145 [I394C] (P19145 whole entry I394C): as the sequence (P19145 whole entry S388C) above, with C388S, I394C counted along it

As to `NC(=O)NCCC[C@H](N)C(=O)O`, the outcome in test [1], in test [2] and in test [3] was inactive. In addition, the inhibition result in test [4] and in test [5] was “Active” in each case. The inhibition result in test [6] is “inactive”. Also, in test [7], the result was Active.
